Several values for one entry are separate records, joined by “and”; a condition that tells them apart may be missing. Identical values can stand only once. Toxic doses and inconclusive results are not listed. The calls were made as follows: active = survival T/C of 150% or more; inactive = T/C below 125% in these data.
Test system: CD2F1 mice, L1210 leukemia ip, survival T/C
Experiment: NCI In Vivo Anticancer Drug Screen. Data for tumor model L1210 Leukemia (intraperitoneal) in CD2F1 (CDF1) mice
Conditions: higher = longer survival
In short: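 Each value reflects a quotient of treated over vehicle control outcomes in mice with a transplanted tumor.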

[1] = endpoint: mean survival time, dose: 100.0 mg/kg/injection, schedule: Q04DX003 (ip), vehicle: saline with Tween-80
[2] = endpoint: mean survival time, dose: 200.0 mg/kg/injection, schedule: Q04DX003 (ip), vehicle: saline with Tween-80
[3] = endpoint: mean survival time, dose: 400.0 mg/kg/injection, schedule: Q04DX003 (ip), vehicle: saline with Tween-80
[4] = endpoint: mean survival time, dose: 12.5 mg/kg/injection, schedule: Q01DX009 (ip), vehicle: Klucel (hydroxypropylcellulose) (HPC)
[5] = endpoint: mean survival time, dose: 50.0 mg/kg/injection, schedule: Q01DX009 (ip), vehicle: Klucel (hydroxypropylcellulose) (HPC)
[6] = endpoint: mean survival time, dose: 100.0 mg/kg/injection, schedule: Q01DX009 (ip), vehicle: saline with Tween-80
[7] = endpoint: mean survival time, dose: 200.0 mg/kg/injection, schedule: Q01DX009 (ip), vehicle: saline with Tween-80

Measured: T/C

[C-]#[O+].[Cl][Sn]([Cl])[Cl].[Cl][Sn]([Cl])[Cl].[Pt].c1cnc2c(c1)ccc1cccnc12
inactive: endpoint: median survival time, dose: 3.12 mg/kg/injection, schedule: Q04DX003 (ip), vehicle: saline with Tween-80 113 % of control | endpoint: median survival time, dose: 6.25 mg/kg/injection, schedule: Q04DX003 (ip), vehicle: saline with Tween-80 109 % of control | endpoint: median survival time, dose: 12.5 mg/kg/injection, schedule: Q04DX003 (ip), vehicle: saline with Tween-80 109 % of control | endpoint: median survival time, dose: 100.0 mg/kg/injection, schedule: Q04DX003 (ip), vehicle: saline with Tween-80 106 % of control

COC(=O)c1ccc(SCC2=Nc3c(nc(N)[nH]c3=O)NCC2)cc1
inactive: endpoint: mean survival time, dose: 0.38 mg/kg/injection, schedule: Q01DX009 (ip), vehicle: distilled water + Tween-80 100 % of control | endpoint: mean survival time, dose: 0.75 mg/kg/injection, schedule: Q01DX009 (ip), vehicle: distilled water + Tween-80 101 % of control | endpoint: mean survival time, dose: 1.5 mg/kg/injection, schedule: Q01DX009 (ip), vehicle: distilled water + Tween-80 105 % of control | endpoint: mean survival time, dose: 3.0 mg/kg/injection, schedule: Q01DX009 (ip), vehicle: distilled water + Tween-80 100 % of control | endpoint: mean survival time, dose: 6.0 mg/kg/injection, schedule: Q01DX009 (ip), vehicle: distilled water + Tween-80 101 % of control | endpoint: mean survival time, dose: 12.0 mg/kg/injection, schedule: Q01DX009 (ip), vehicle: distilled water + Tween-80 93 % of control | endpoint: mean survival time, dose: 48.0 mg/kg/injection, schedule: Q01DX009 (ip), vehicle: distilled water + Tween-80 88 % of control

Brc1ccc2c(c1)-c1ccccc1C2Br (configuration not stated)
inactive: endpoint: mean survival time, dose: 62.5 mg/kg/injection, schedule: Q04DX003 (ip), vehicle: saline with Tween-80 107 % of control | endpoint: mean survival time, dose: 125.0 mg/kg/injection, schedule: Q04DX003 (ip), vehicle: saline with Tween-80 109 % of control | endpoint: mean survival time, dose: 250.0 mg/kg/injection, schedule: Q04DX003 (ip), vehicle: saline with Tween-80 98 % of control

CC(=O)Nc1ccc(C(=O)c2ccc(C(=O)O)cc2)cc1
inactive: endpoint: mean survival time, dose: 100.0 mg/kg/injection, schedule: Q04DX002 (ip), vehicle: saline with Tween-80 92 % of control and 98 % of control | [1] 95 % of control and 100 % of control | endpoint: mean survival time, dose: 200.0 mg/kg/injection, schedule: Q04DX002 (ip), vehicle: saline with Tween-80 93 % of control and 96 % of control | [2] 104 % of control and 109 % of control | endpoint: mean survival time, dose: 400.0 mg/kg/injection, schedule: Q04DX002 (ip), vehicle: saline with Tween-80 96 % of control and 107 % of control | [3] 114 % of control and 104 % of control

Cn1c(=O)c2[nH]c(-c3ccccc3[N+](=O)[O-])nc2n(C)c1=O
inactive: endpoint: mean survival time, dose: 12.5 mg/kg/injection, schedule: Q01DX005 (ip), vehicle: other 97 % of control | endpoint: mean survival time, dose: 25.0 mg/kg/injection, schedule: Q01DX005 (ip), vehicle: other 94 % of control | endpoint: mean survival time, dose: 50.0 mg/kg/injection, schedule: Q01DX005 (ip), vehicle: other 90 % of control | endpoint: mean survival time, dose: 100.0 mg/kg/injection, schedule: Q01DX005 (ip), vehicle: other 96 % of control | endpoint: mean survival time, dose: 200.0 mg/kg/injection, schedule: Q01DX005 (ip), vehicle: other 94 % of control

Nc1ncnc(N)c1NC(=O)c1cccc(OCc2ccccc2)c1
inactive: [1] 100 % of control | [2] 91 % of control | [3] 94 % of control

COc1cc2cc(c1Cl)N1CC(O)C(C)(O)C(=O)NC(C)C(=O)OC(CC1=O)C1(C)OC1C(C)C1CC(O)(NC(=O)O1)C(OC)/C=C\C=C(\C)C2OC (configuration not stated)
inactive: endpoint: median survival time, dose: 2.0 micrograms/kg/injection, schedule: Q01DX009 (ip), vehicle: distilled water + alcohol 104 % of control | endpoint: median survival time, dose: 4.0 micrograms/kg/injection, schedule: Q01DX009 (ip), vehicle: distilled water + alcohol 104 % of control | endpoint: median survival time, dose: 8.0 micrograms/kg/injection, schedule: Q01DX009 (ip), vehicle: distilled water + alcohol 108 % of control | endpoint: median survival time, dose: 32.0 micrograms/kg/injection, schedule: Q01DX009 (ip), vehicle: distilled water + alcohol 104 % of control

COc1cc2c[n+](C)c3c4cc5c(cc4ccc3c2cc1OC)OCO5 (tested in a mixture with another compound)
inactive: endpoint: mean survival time, dose: 3.13 mg/kg/injection, schedule: Q01DX009 (ip), vehicle: other 118 % of control and 112 % of control | endpoint: mean survival time, dose: 5.0 mg/kg/injection, schedule: Q01DX009 (ip), vehicle: saline 119 % of control | endpoint: mean survival time, dose: 6.25 mg/kg/injection, schedule: Q01DX009 (ip), vehicle: Klucel (hydroxypropylcellulose) (HPC) 112 % of control | endpoint: mean survival time, dose: 6.25 mg/kg/injection, schedule: Q01DX009 (ip), vehicle: other 117 % of control and 112 % of control | [4] 124 % of control | endpoint: mean survival time, dose: 12.5 mg/kg/injection, schedule: Q01DX009 (ip), vehicle: other 113 % of control and 118 % of control | endpoint: mean survival time, dose: 25.0 mg/kg/injection, schedule: Q01DX009 (ip), vehicle: other 113 % of control and 116 % of control | [5] 112 % of control

CCCCCC(=O)N1CCOCC1
inactive: endpoint: mean survival time, dose: 25.0 mg/kg/injection, schedule: Q04DX003 (ip), vehicle: saline with Tween-80 98 % of control | endpoint: mean survival time, dose: 50.0 mg/kg/injection, schedule: Q04DX003 (ip), vehicle: saline with Tween-80 98 % of control | [1] 104 % of control and 112 % of control | [2] 102 % of control | [3] 100 % of control

O=S(=O)(Cc1ccc(CS(=O)(=O)c2ccc(Cl)cc2)cc1)c1ccc(Cl)cc1
inactive: endpoint: mean survival time, dose: 12.5 mg/kg/injection, schedule: Q01DX009 (ip), vehicle: saline with Tween-80 91 % of control | endpoint: mean survival time, dose: 25.0 mg/kg/injection, schedule: Q01DX009 (ip), vehicle: saline with Tween-80 90 % of control | endpoint: mean survival time, dose: 50.0 mg/kg/injection, schedule: Q01DX009 (ip), vehicle: saline with Tween-80 91 % of control

Fc1c(F)c(F)c(Nc2c(F)c(F)c3c(F)c(F)c(F)c(F)c3c2F)c(F)c1F
inactive: endpoint: mean survival time, dose: 100.0 mg/kg/injection, schedule: Q01DX001 (ip), vehicle: saline with Tween-80 98 % of control | endpoint: mean survival time, dose: 200.0 mg/kg/injection, schedule: Q01DX001 (ip), vehicle: saline with Tween-80 96 % of control | endpoint: mean survival time, dose: 400.0 mg/kg/injection, schedule: Q01DX001 (ip), vehicle: saline with Tween-80 98 % of control

Cc1cccc(Cl)c1NC(=O)Nc1cc(Cl)ccc1Oc1c(Cl)cc(Cl)cc1S(=O)(=O)O
inactive: [6] 90 % of control | [7] 90 % of control

CCC(/C=N/N=C(N)N)=N\N=C(N)N
inactive: endpoint: mean survival time, dose: 15.0 mg/kg/injection, schedule: Q01DX010 (ip), vehicle: saline 95 % of control | endpoint: mean survival time, dose: 60.0 mg/kg/injection, schedule: Q01DX010 (ip), vehicle: saline 101 % of control

CN(C)CCCNC/C=C\CNCCCN(C)C
inactive: endpoint: mean survival time, dose: 100.0 mg/kg/injection, schedule: Q04DX003 (ip), vehicle: saline 101 % of control | endpoint: mean survival time, dose: 200.0 mg/kg/injection, schedule: Q04DX003 (ip), vehicle: saline 101 % of control

O=C1CSC(=S)N1/N=C/c1ccc(Cl)s1
inactive: endpoint: mean survival time, dose: 75.0 mg/kg/injection, schedule: Q01DX001 (ip), vehicle: other 96 % of control

O=C1c2ccccc2C(=O)N1CCCl
inactive: [6] 91 % of control | [7] 91 % of control | endpoint: mean survival time, dose: 400.0 mg/kg/injection, schedule: Q01DX009 (ip), vehicle: saline with Tween-80 92 % of control

COc1cccc(CN2CCN(N)CC2)c1
inactive: [4] 98 % of control | endpoint: mean survival time, dose: 25.0 mg/kg/injection, schedule: Q01DX009 (ip), vehicle: Klucel (hydroxypropylcellulose) (HPC) 97 % of control | [5] 97 % of control | endpoint: mean survival time, dose: 100.0 mg/kg/injection, schedule: Q01DX009 (ip), vehicle: Klucel (hydroxypropylcellulose) (HPC) 92 % of control | endpoint: mean survival time, dose: 200.0 mg/kg/injection, schedule: Q01DX009 (ip), vehicle: Klucel (hydroxypropylcellulose) (HPC) 97 % of control

CCCC(CC(=O)O)(C(=O)O)c1ccccc1 (configuration not stated)
inactive: endpoint: mean survival time, dose: 100.0 mg/kg/injection, schedule: Q01DX009 (ip), vehicle: other 108 % of control | endpoint: mean survival time, dose: 100.0 mg/kg/injection, schedule: Q04DX003 (ip), vehicle: other 93 % of control | endpoint: mean survival time, dose: 200.0 mg/kg/injection, schedule: Q01DX009 (ip), vehicle: other 91 % of control | endpoint: mean survival time, dose: 200.0 mg/kg/injection, schedule: Q04DX003 (ip), vehicle: other 97 % of control | endpoint: mean survival time, dose: 400.0 mg/kg/injection, schedule: Q01DX009 (ip), vehicle: other 91 % of control | endpoint: mean survival time, dose: 400.0 mg/kg/injection, schedule: Q04DX003 (ip), vehicle: other 98 % of control
